According to US20220306989A1, “CELL THERAPY METHODS” (Universität Basel, priority 2019, published 2022):
Numbered stars: 1 amine (or outer) side, 2 acyl side, 3 side chain; on linkers, the order of the positions; unused ones are H or OH. Bridge positions count the residues as written; N and C are the ends. Square brackets hold non-standard residues; d marks the D form. Peptide text beside a SMILES is read from it. I, II: the chains in the order shown. Actinocin(9to1) = Cc1c2oc3c(C)ccc(C(=O)[*:1])c3nc-2c(C(=O)[*:2])c(N)c1=O; NMeV = CN[C@H](C(=O)O)C(C)C; Sar = CNCC(=O)O

Columns and labels:
[1] = test system: NV and CE NK cells; experiment: Transferrin uptake assay (Tf-488); type: cell-based, human; settings: IL-12/IL-18 + 2-DG treated NK cells
Protocol: (§1) Blood samples were obtained from healthy donors after written informed consent. Peripheral blood mononuclear cells were isolated by standard density-gradient centrifugation protocols (Lymphoprep; Fresenius Kabi). NK cells were negatively selected using EasySep negative NK cell isolation kit (Stemcell). Human NK cells were maintained in RPMI-1640 medium (Invitrogen) supplemented with 10% heat-inactivated human AB serum, 50 U/ml penicillin (Invitrogen) and 50 μg/ml streptomycin (Invitrogen) (R10AB). To generate CE NK cells, isolated NK cells were primed in R10AB containing IL-12 (10 ng/ml, R&D systems), IL-15 (1 ng/ml, PeproTech) and IL-18 (50 ng/ml, R&D systems) over-night. The next day cells were washed twice with PBS and maintained in R10AB containing IL-15 (1 ng/ml) until stimulation. Every 2-3 days 50% of the medium was replaced with fresh IL-IS (1 ng/ml). After 7 days cells were stimulated in R10AB containing IL-12 (10 ng/ml), IL-15 (1 ng/ml) and IL-18 (50 ng/ml) or with K562 leukemia targets (effector: target ratio, 5:1) for 6 hours. […]
NK cells were seeded in U-bottom 96-well plates (2×10^5 cells/well). […] Cells were resuspended in FACS buffer and analyzed by flow cytometry. […] Data were analyzed with Flowjo®_V10.5 (Tree Star, USA).

[2] = test system: NV and CE NK cells; experiment: Flow cytometry of surface CD71 / CD69 on human NK cells; type: cell-based
Protocol: as §1
For surface staining NK cells were stained for 30 min at 4° C. with saturating concentrations of antibodies. […] Data were analyzed with Flowjo®_V10.5 (Tree Star, USA).

[3] = test system: NV and CE NK cells; experiment: Quantitative real-time PCR of IFNG and TFRC mRNA in NK cells; type: cell-based, human
Protocol: as §1, with “ng/ml).” for “ng/ml). After 7 days cells were stimulated in R10AB containing IL-12 (10 ng/ml), IL-15 (1 ng/ml) and IL-18 (50 ng/ml) or with K562 leukemia targets (effector: target ratio, 5:1) for 6 hours.”
RNA was isolated from NK cells using Trizol (Thermo Fisher Scientific) and chloroform (Sigma-Aldrich) according to manufacturer's protocol, then purified with RNeasy RNA purification mini kit (QIAGEN, Germany). RNA concentration was determined using the NanoDrop 2000C (Thermo Fisher Scientific). […] Quantitative PCR for IFNG, TFRC and 18S mRNA was done in triplicate using commercially designed primers from Life Technologies (Hs00989291_m1, Hs00951083_m1, Hs03003631_g1). […]

[4] = test system: NV and CE NK cells; experiment: IFN-γ measurement in human NK cells (bead-based immunoassay of supernatants); type: cell-based; settings: IL-12/IL-18 stimulation 6 hours, 2-DG 10 mM pre-incubated 30 min
Protocol: as §1
NK cells were seeded in U-bottom 96 well plates (2×10^5 cells/well) using R10AB. […] Cell supernatants were harvested after stimulation and IFN-γ was measured using a human Th1 cytokine bead-based immunoassay (Legendplex, Biolegend) according to manufacturer's protocol.

[5] = test system: NV and CE NK cells; type: cell-based
Protocol: (§2) Blood samples were obtained from healthy donors after written informed consent. Peripheral blood mononuclear cells were isolated by standard density-gradient centrifugation protocols (Lymphoprep; Fresenius Kabi). NK cells were negatively selected using EasySep negative NK cell isolation kit (Stemcell). Human NK cells were maintained in RPMI-1640 medium (Invitrogen) supplemented with 10% heat-inactivated human AB serum, 50 U/ml penicillin (Invitrogen) and 50 μg/ml streptomycin (Invitrogen) (R10AB). To generate CE NK cells, isolated NK cells were primed in R10AB containing IL-12 (10 ng/ml, R&D systems), IL-15 (1 ng/ml, PeproTech) and IL-18 (50 ng/ml, R&D systems) over-night. The next day cells were washed twice with PBS and maintained in R10AB containing IL-15 (1 ng/ml) until stimulation. Every 2-3 days 50% of the medium was replaced with fresh IL-IS (1 ng/ml). After 7 days cells were stimulated in R10AB containing IL-12 (10 ng/ml), IL-15 (1 ng/ml) and IL-18 (50 ng/ml) or with K562 leukemia targets (effector: target ratio, 5:1) for 6 hours. When indicated, cells were pre-incubated with 2-deoxy-D-glucose (10 mM, Sigma-Aldrich), Actinomycin D (1 and 10 μM, Sigma-Aldrich), Cycloheximide (10 and 100 μg/ml, Sigma-Aldrich), 2,2′-Bipyridyl (1, 10, 50 and 100 μM, Sigma-Aldrich) or 6-aminonicotinamide (50 μM, Sigma-Aldrich) for 30 min and then stimulated in R10AB containing IL-12 (10 ng/ml), IL-1S (1 ng/ml) and IL-18 (50 ng/ml) for 6 hours.
For cell proliferation assays, NK cells were loaded prior to activation with the cell-proliferation dye CFSE (1 μM, Molecular probes, USA) and seeded in 96-well plates. Cells were washed twice and maintained in R10AB with IL-15 (1 ng/ml), when indicated in the presence of inhibitors. A fixable live-dead cell stain (Fixable Viability Dye, eBioscience or Zombie Aqua, Biolegend) was used to exclude dead cells prior to sample acquisition. CFSE dilution was analyzed 65 hours post-stimulation by flow cytometry. Samples were acquired using a BD AccuriC6 or a CytoFLEX flow cytometer (Beckman Coulter). Data were analyzed with Flowjo®_V 10.5 (Tree Star, USA).

[6] = test system: NV and CE NK cells; experiment: Immunoblot of total CD71, IRP1, IRP2 in human NK cells; type: cell-based; settings: IL-12/IL-18 + ActD 1 and 10 μM or CHX 10 and 100 μg/ml
Protocol: as §2
Protein concentrations were determined by BCA protein assay kit (Thermo Fisher Scientific). Total cell lysates were separated using 4%-15% Mini Protean TGX Gel (Bio-Rad, Hercules Calif., USA), and transferred to nitrocellulose membranes using Trans-Blot Turbo Transfer (Bio-Rad, Hercules Calif., USA). […] Blots were stained with appropriate secondary antibodies and the odyssey imaging system (LICOR, Lincoln Nebr., USA) was used for visualization, and the ImageJ software (1.48v) for quantification.

## O=CC[C@@H](O)[C@H](O)[C@H](O)CO [2-DG, 2-deoxy-d-glucose]
[1]
  transferrin uptake (Tf-488): reduced transferrin uptake
[2]; IL-12/IL-18 + 2-DG, NV and CE NK cells
  Cell surface expression of CD71: followed the same pattern
[3]; IL-12/IL-18 + 2-DG
  TFRC mRNA abundance: similarly reduced
[3]; IL-12/IL-18 stimulation 6 hours, 2-DG 10 mM pre-incubated 30 min
  IFNG mRNA abundance: similarly reduced
[4]
  IFN-γ secretion: similarly reduced

## NC(=O)c1ccc(N)nc1 [6AN, 6-aminonicotinamide]
[5]; IL-12/IL-18 + 6AN 50 μM, NV and CE NK cells
  expansion / proliferation of cytokine-stimulated NK cells (CFSE dilution): prevented expansion of cytokine-stimulated NK cells

## Cc1c2oc3c(C)ccc(C(=O)N[C@@H]4C(=O)N[C@H](C(C)C)C(=O)N5CCC[C@H]5C(=O)N(C)CC(=O)N(C)[C@@H](C(C)C)C(=O)O[C@@H]4C)c3nc-2c(C(=O)N[C@@H]2C(=O)N[C@H](C(C)C)C(=O)N3CCC[C@H]3C(=O)N(C)CC(=O)N(C)[C@@H](C(C)C)C(=O)O[C@@H]2C)c(N)c1=O [Actinomcyin D, Actinomycin D] (I: T[dV]P[Sar][NMeV] / II: T[dV]P[Sar][NMeV]; ester I:1-I:C, II:1-II:C; linker I:N-II:N via Actinocin(9to1))
[6]
  stimulation-induced upregulation of CD71 (total CD71, Western blot): entirely prevented stimulation-induced upregulation of CD71
[6]; listed as actinomycin
  stimulation-induced upregulation of CD71 (total CD71, Western blot): prevented stimulation-induced upregulation of CD71

## c1ccc(-c2ccccn2)nc1 [BIP, 2,2′-bipyridyl]
[2]; IL-12/IL-18 + BIP 100 μM
  NK cell activation as assessed by CD69 expression: no effect on NK cell activation
[5]
  cell viability: minimal effects on cell viability
[5]; IL-12/IL-18 + BIP 1, 10 and 50 μM, NV and CE NK cells, 65 hours post-stimulation
  NK cell proliferation (CFSE dilution): inhibited NK cell proliferation in a dose-dependent manner

## C[C@@H]1C[C@@H]([C@H](O)CC2CC(=O)NC(=O)C2)C(=O)[C@@H](C)C1 [cycloheximide]
[6]
  stimulation-induced upregulation of CD71 (total CD71, Western blot): entirely prevented stimulation-induced upregulation of CD71
